# In PMC6269003, “Two New Coumarins from Micromelum falcatum with Cytotoxicity and Brine Shrimp Larvae Toxicity” (Molecules, 2012):
# What was measured:
# in vivo = details: brine shrimp, in vivo, other: larvae exposed in sea water in 96 well plate, LC50 against brine shrimp larvae; 96 well plates assay
# Procedure: (§1) According to the method described by Wanyoike, brine shrimp eggs (Ocean Star International, Inc., USA) were hatched in a large beaker containing natural sea water (South China Sea) and they were cultured at room temperature for 48 h. With the help of a light source, the larvae grouped together on one side of the vessel and were easily collected for the assay. […] Each test was processed in triplicate with approximate ten larvae. Brine shrimps were counted under a magnifying glass after 24 h of incubation and maintaining the 96 well plates under illumination. The controls were prepared in the same manner except that the test samples were omitted.
# brine shrimp larvae = test: in vivo; details: for LC50 against brine shrimp larvae: 96 well plates assay; for LD50 (brine shrimp): brine shrimp larvae, 96 well plates, 24 h incubation
# Procedure: as §1
# [1] = system: lung cancer (HvEvc) cell line; test: antiproliferative MTT assay, HvEvc; format: cell-based; details: MTT method, 72 h
# Procedure: (§2) Antiproliferative activities of compounds were evaluated by the MTT method using mammary cancer (F10) and lung cancer (HvEvc) cell lines. In MTT assay, the cell suspensions (200 μL) at a density of 1 × 10^5 cells mL^−1 were plated in 96-well microtiter plates and incubated for 24 h at 37 °C in a humidified incubator at 5% CO2. The tested compound solution (2 μL in DMSO) at different concentrations was added to each well and further incubated for 72 h in the same condition. Then, the MTT solution (50 μL) was added to each well and incubated for 4 h. The old medium (150 μL) containing MTT was then gently replaced by DMSO. Absorbance was then determined on a Spectra Max Plus plate reader at 490 nm.
# [2] = system: mammary cancer (F10) cell line; test: antiproliferative MTT assay, F10; format: cell-based; details: MTT method, 72 h
# Procedure: as §2
# [3] = system: P-388 lymphocytic leukemia; design: method as in PMID 490172; details: mice, 10 mg/Kg; cited from earlier work
# Lewis lung carcinoma = system: Lewis lung carcinoma; design: method as in PMID 490172; details: mice, 1.25 mg/Kg; cited from earlier work
# [4] = design: method as in PMID 10378778; details: cited from earlier work
# [5] = system: P-388 lymphocytic leukemia; design: method as in doi:10.1021/jo00150a028; details: in vitro; cited from earlier work
Compound,LC50 against brine shrimp larvae (brine shrimp larvae),LD50 (brine shrimp) (brine shrimp larvae),further results
"COc1ccc2ccc(=O)oc2c1/C=C/C(CO)COC(=O)CC(C)C (stereo not shown) [Compound 1, 7-Methoxy-8-(2-hydroxmethyl-1-O-isovaleryl-4-butenyl)coumarin]",< 10 µM,6.8 µg/mL,LC50 at 24 h (in vivo): 6.8 µg/mL; IC50 [1]: 35.7 µg/mL
"C=C(C)C(OC1OC(CO)C(O)C(O)C1O)C(O)c1c(OC)ccc2ccc(=O)oc12 (stereo not drawn) [Compound 2, 7-Methoxy-8-(1-hydroxy-2-O-β-glucopyranosyl-3-methyl-4-butene-1-yl)coumarin]",–,29.1 µg/mL,LC50 at 24 h (in vivo): < 500 µg/mL; IC50 [2]: 23.6 µg/mL; IC50 [1]: 68.5 µg/mL
"COc1cc2oc(=O)ccc2cc1C=O [Compound 4, 6-formyl-7-methoxycoumarin]",–,>500 µg/mL,–
"COc1ccc2ccc(=O)oc2c1C(C=O)=C(C)C [Compound 5, murralongin]",–,>500 µg/mL,–
"COc1ccc2ccc(=O)oc2c1/C=C/C(C)(C)O [Compound 6, murraol]",< 500 µM,199.3 µg/mL,IC50 (HvEvc) [1]: 172.5 µg/mL
"C=C(C)C(CO)c1c(OC)ccc2ccc(=O)oc12 (stereo not shown) [Compound 10, isomurralonginol]",< 500 µM,50.6 µg/mL,IC50 (HvEvc) [1]: 72.6 µg/mL
"C=C(C)C(O)C(OC)c1c(OC)ccc2ccc(=O)oc12 (stereo not shown) [Compound 11, murracarpin]",< 500 µM,158.5 µg/mL,IC50 (HvEvc) [1]: 124.3 µg/mL
COc1cc2oc(=O)ccc2cc1[C@@H]1OC(=O)[C@@]2(C)O[C@@H]12 [micromelin],–,–,T/C [3]: 149%; T/C (Lewis lung carcinoma): 228%
C=C(C)[C@H](O)[C@@H](O)c1c(OC)ccc2ccc(=O)oc12 [minumicrolin],–,–,anti-tumor promoting activity [4]: valuable anti-tumor promoting agents
C=C(C)[C@@H](O)[C@@H](O)c1c(OC)ccc2ccc(=O)oc12 [murrangatin],–,–,anti-tumor promoting activity [4]: valuable anti-tumor promoting agents
(E)-osthenone [Compound 9],–,>500 µg/mL,–
arscotin [Compound 7],< 500 µM,118.5 µg/mL,–
methoxymicrominutinin [Compound 13],–,>500 µg/mL,–
microfalcatin isovalerate [Compound 14],–,–,IC50 (F10) [2]: 112.0 µg/mL
microminutin [Compound 3],< 500 µM,107.3 µg/mL,IC50 (F10) [2]: 82.9 µg/mL; ED50 [5]: 3.7 µg/mL
microminutinin [Compound 12],–,>500 µg/mL,–
murralonginol [Compound 8],–,>500 µg/mL,–
